From PubChem BioAssay AID248 (DTP/NCI, 2004)
“And” between values parts separate entries of the source, which are not always exact repeats. Identical values can stand only once. Inconclusive results and toxic doses are left out. Rule as the data show it: active = T/C of 150% or more; inactive = T/C below 125%.

Test system: L1210 leukemia ip in BDF1 mice, survival T/C
Test: NCI In Vivo Anticancer Drug Screen. Data for tumor model L1210 Leukemia (intraperitoneal) in B6D2F1 (BDF1) mice
Conditions: endpoint: mean survival time, higher = longer survival
In short: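 Tumor cells were implanted, animals were treated, and survival was followed. The result divides the treated measurement by the vehicle-control measurement.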

[1] = dose: 100.0 mg/kg/injection, schedule: Q01DX001 (ip), vehicle: saline
[2] = dose: 200.0 mg/kg/injection, schedule: Q01DX001 (ip), vehicle: saline
[3] = dose: 400.0 mg/kg/injection, schedule: Q01DX001 (ip), vehicle: saline
[4] = dose: 75.0 mg/kg/injection, schedule: Q01DX001 (ip), vehicle: saline
[5] = dose: 150.0 mg/kg/injection, schedule: Q01DX001 (ip), vehicle: saline
[6] = dose: 100.0 mg/kg/injection, schedule: Q01DX009 (ip), vehicle: saline with Tween-80
[7] = dose: 200.0 mg/kg/injection, schedule: Q01DX009 (ip), vehicle: saline with Tween-80
[8] = dose: 400.0 mg/kg/injection, schedule: Q01DX009 (ip), vehicle: saline with Tween-80
[9] = dose: 100.0 mg/kg/injection, schedule: Q01DX009 (ip), vehicle: Klucel (hydroxypropylcellulose) (HPC)
[10] = dose: 200.0 mg/kg/injection, schedule: Q01DX009 (ip), vehicle: Klucel (hydroxypropylcellulose) (HPC)
[11] = dose: 100.0 mg/kg/injection, schedule: Q04DX002 (ip), vehicle: saline with Tween-80
[12] = dose: 200.0 mg/kg/injection, schedule: Q04DX002 (ip), vehicle: saline with Tween-80
[13] = dose: 400.0 mg/kg/injection, schedule: Q04DX002 (ip), vehicle: saline with Tween-80
[14] = dose: 400.0 mg/kg/injection, schedule: Q01DX009 (ip), vehicle: Klucel (hydroxypropylcellulose) (HPC)
[15] = dose: 100.0 mg/kg/injection, schedule: Q04DX003 (ip), vehicle: saline
[16] = dose: 12.5 mg/kg/injection, schedule: Q04DX002 (ip), vehicle: Klucel (hydroxypropylcellulose) (HPC)
[17] = dose: 25.0 mg/kg/injection, schedule: Q04DX002 (ip), vehicle: Klucel (hydroxypropylcellulose) (HPC)
[18] = dose: 50.0 mg/kg/injection, schedule: Q01DX001 (ip), vehicle: saline

Measured: T/C

O=C(OCC1OC(n2nnc3ccnc(Cl)c32)C(OC(=O)c2ccccc2)C1OC(=O)c1ccccc1)c1ccccc1 (centres undefined)
inactive: dose: 50.0 mg/kg/injection, schedule: Q01DX005 (ip), vehicle: saline with Tween-80 93 % of control | dose: 100.0 mg/kg/injection, schedule: Q01DX005 (ip), vehicle: saline with Tween-80 98 % of control | dose: 200.0 mg/kg/injection, schedule: Q01DX005 (ip), vehicle: saline with Tween-80 104 % of control

O=C(O)C(O)Cc1ccc(O)cc1 (centres undefined)
inactive: [1] 90 % of control | [2] 92 % of control | [3] 97 % of control

CCOc1ccc(NC(C)=O)c(O)c1
inactive: [4] 101 % of control | [5] 98 % of control

CC(=O)Oc1ccc2c3c(cccc13)CC2
inactive: [6] 97 % of control | [7] 96 % of control | [8] 92 % of control

COC(=O)NS(=O)(=O)C=C(c1ccccc1)c1ccccc1
inactive: [9] 106 % of control | dose: 100.0 mg/kg/injection, schedule: Q04DX003 (ip), vehicle: Klucel (hydroxypropylcellulose) (HPC) 96 % of control | [10] 106 % of control | dose: 200.0 mg/kg/injection, schedule: Q04DX003 (ip), vehicle: Klucel (hydroxypropylcellulose) (HPC) 108 % of control | dose: 400.0 mg/kg/injection, schedule: Q04DX003 (ip), vehicle: Klucel (hydroxypropylcellulose) (HPC) 86 % of control

CC(=O)[O][Sb]([O]C(C)=O)([c]1ccccc1)([c]1ccccc1)[c]1ccccc1
inactive: [11] 96 % of control | [12] 96 % of control | [13] 96 % of control

CCP(C)(=S)CC
inactive: [9] 101 % of control | [10] 100 % of control | [14] 100 % of control

O=C(Nc1ccccc1O)/C(Cl)=C/Cl
inactive: [6] 109 % of control | dose: 100.0 mg/kg/injection, schedule: Q04DX003 (ip), vehicle: saline sonified 104 % of control | [7] 102 % of control | dose: 200.0 mg/kg/injection, schedule: Q04DX003 (ip), vehicle: saline sonified 106 % of control | [8] 88 % of control | dose: 400.0 mg/kg/injection, schedule: Q04DX003 (ip), vehicle: saline sonified 106 % of control

Cc1cccc(C(=O)C=C(C(F)(F)F)C(F)(F)F)c1
inactive: dose: 12.5 mg/kg/injection, schedule: Q04DX003 (ip), vehicle: saline with Tween-80 103 % of control | dose: 25.0 mg/kg/injection, schedule: Q04DX003 (ip), vehicle: saline with Tween-80 111 % of control | dose: 50.0 mg/kg/injection, schedule: Q04DX003 (ip), vehicle: saline with Tween-80 102 % of control and 118 % of control

O=C(O)Cn1c(=O)ccc2ccccc21
inactive: [11] 91 % of control | [12] 95 % of control | [13] 95 % of control

Cc1ccc(NC(=O)Nc2cccc(F)c2)cc1C
inactive: [9] 94 % of control | [10] 97 % of control | [14] 95 % of control

CCCCCCCC/C=C\CCCCCCCC(=O)[O][Sn]([CH2]CCC)([CH2]CCC)[O]C(=O)CCCCCCC/C=C\CCCCCCCC
inactive: dose: 1.56 mg/kg/injection, schedule: Q01DX009 (ip), vehicle: Klucel (hydroxypropylcellulose) (HPC) 109 % of control | dose: 3.12 mg/kg/injection, schedule: Q01DX009 (ip), vehicle: Klucel (hydroxypropylcellulose) (HPC) 98 % of control | dose: 6.25 mg/kg/injection, schedule: Q01DX009 (ip), vehicle: Klucel (hydroxypropylcellulose) (HPC) 106 % of control

CCC[N+](CC)(CC)CCOC(=O)C1C2CC3OC(=O)C1C3C2 (centres undefined)
inactive: [15] 101 % of control

CC(=O)Nc1ccc(SS(=O)(=O)c2ccc(NC(C)=O)cc2)cc1
inactive: [1] 95 % of control | [2] 101 % of control | [3] 101 % of control

CC(C)(C)[Si](O)C(C)(C)C
inactive: [4] 91 % of control | [5] 98 % of control | dose: 300.0 mg/kg/injection, schedule: Q01DX001 (ip), vehicle: saline 96 % of control

COc1ccc([N+](=O)[O-])cc1NS(=O)(=O)c1ccc(Cl)cc1
inactive: [9] 102 % of control | [10] 98 % of control | [14] 93 % of control

CC1CCCCC1=C(C#N)C#N (centres undefined)
inactive: dose: 5.0 mg/kg/injection, schedule: Q01DX001 (ip), vehicle: saline 97 % of control | dose: 10.0 mg/kg/injection, schedule: Q01DX001 (ip), vehicle: saline 121 % of control | dose: 20.0 mg/kg/injection, schedule: Q01DX001 (ip), vehicle: saline 94 % of control | dose: 40.0 mg/kg/injection, schedule: Q01DX001 (ip), vehicle: saline 103 % of control

OCC(O)Cc1ccccc1 (centres undefined)
inactive: dose: 100.0 mg/kg/injection, schedule: Q01DX009 (ip), vehicle: saline 97 % of control | [15] 102 % of control | dose: 200.0 mg/kg/injection, schedule: Q01DX009 (ip), vehicle: saline 105 % of control | dose: 200.0 mg/kg/injection, schedule: Q04DX003 (ip), vehicle: saline 102 % of control | dose: 400.0 mg/kg/injection, schedule: Q01DX009 (ip), vehicle: saline 108 % of control | dose: 400.0 mg/kg/injection, schedule: Q04DX003 (ip), vehicle: saline 101 % of control

NC(CSS(=O)(=O)O)=NCCCc1ccccc1
inactive: [16] 97 % of control | [17] 108 % of control

COc1cc(-c2ccc(Nc3ccccc3C(=O)O)c(OC)c2)ccc1N
inactive: dose: 15.0 mg/kg/injection, schedule: Q01DX Z (ip), vehicle: carboxymethylcellulose (CMC) 102 % of control | dose: 22.0 mg/kg/injection, schedule: Q01DX Z (ip), vehicle: carboxymethylcellulose (CMC) 117 % of control | dose: 23.0 mg/kg/injection, schedule: Q01DX Z (ip), vehicle: carboxymethylcellulose (CMC) 112 % of control | dose: 35.0 mg/kg/injection, schedule: Q01DX Z (ip), vehicle: carboxymethylcellulose (CMC) 111 % of control and 121 % of control | [18] 121 % of control | [1] 115 % of control | [2] 114 % of control

C=C(C)C(=O)O[C@@H]1C[C@@]2(C)O[C@@H]2C[C@H](O)/C(C)=C/[C@H]2OC(=O)C(=C)[C@@H]21
inactive: dose: 25.0 mg/kg/injection, schedule: Q01DX001 (ip), vehicle: saline 91 % of control | [18] 96 % of control | [1] 112 % of control

COc1cc(Cl)ccc1N=CC(=O)c1ccc(C)cc1
inactive: [16] 94 % of control | [17] 87 % of control | dose: 50.0 mg/kg/injection, schedule: Q04DX002 (ip), vehicle: Klucel (hydroxypropylcellulose) (HPC) 115 % of control

CC(C)CCCc1c[nH]c(=O)[nH]c1=O
inactive: [9] 105 % of control | dose: 100.0 mg/kg/injection, schedule: Q04DX003 (ip), vehicle: other 103 % of control | [10] 97 % of control | dose: 200.0 mg/kg/injection, schedule: Q04DX003 (ip), vehicle: other 101 % of control | [14] 97 % of control | dose: 400.0 mg/kg/injection, schedule: Q04DX003 (ip), vehicle: other 117 % of control

O=C(Nc1ccccc1)Nc1cccc2ccccc12
inactive: dose: 100.0 mg/kg/injection, schedule: Q04DX002 (ip), vehicle: gum acacia 102 % of control | dose: 200.0 mg/kg/injection, schedule: Q04DX002 (ip), vehicle: gum acacia 94 % of control | dose: 400.0 mg/kg/injection, schedule: Q04DX002 (ip), vehicle: gum acacia 94 % of control
